Test results: patent US4725683A, “Fluorophenoxyphenoxypropionates and derivatives thereof” (The Dow Chemical Company, priority 1985, dated 1988)

How the values were obtained:
Format in all cases: in vivo
Barley [1] = experiment: Selective postemergence, track sprayer
Method: (§1) Representative compositions of the present invention were evaluated for the postemergence control of species of plants listed in Table A. In these evaluations, pots of the plant species listed in Table A, grown to a height of about 10 cms, were used. Aqueous spray compositions, containing various amounts of 2-[4-(2-fluoro-4-trifluoromethylphenoxy)-phenoxy]propionic acid methy ester, i.e., 125 ppm, 62.5 ppm, 31.25 ppm, 15.6 ppm, 7.8 ppm and 3.9 ppm, respectively, were applied to separate pots. The spray compositions were made by mixing the active ingredient in acetone to 1/2 the final volume, i.e., twice the final concentration. An equal amount of water was added to the active ingredient/acetone mixture wherein the water contained 0.1 percent by weight of TWEEN® 200 surfactant. The application to the plants was made to the point of run-off and was carried out with conventional spraying equipment. Other pots were sprayed with similar compositions containing no toxicant to serve as controls. Thereafter, the pots were maintained under conditions conducive for plant growth. Two weeks after treatment, the pots were examined for plant growth and evaluated on a scale of 0 to 100 where 0 represents no effect and 100 represents complete kill. The results of the examination of the treated pots are set forth below in Table A.
(§2) To further define the selective postemergence herbicidal characteristics of compounds of the present invention, chemicals were applied to additional species of grasses as listed in Table F. Chemicals evaluated were 2-[4-(4-bromo-2-fluorophenoxy)phenoxy]propionic acid methyl ester and its R isomer. Treatment conditions were similar to those described in Example A except that chemicals were delivered through a track sprayer set to deliver the appropriate dosages in 280.6 L/hectare of water containing 0.1% Tween-20 surfactant.

Green Foxtail [2] = experiment: Selective postemergence, track sprayer
Method: as §1, §2

Tall Fescue = experiment: Selective postemergence, track sprayer
Method: as §1, §2

Orchardgrass = experiment: Selective postemergence, track sprayer
Method: as §1, §2

Barley [3] = experiment: Postemergent activity
Outline: (§3)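 Spray mix: compound dissolved in acetone, then an equal volume of water with 0.1% w/w TWEEN 200 surfactant added; applied to run-off. Treated pots held about 10 cm tall at spraying and grown on afterwards under favorable conditions.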

Green Foxtail [4] = experiment: Postemergent activity
Outline: as §3

Yellow Foxtail = experiment: Postemergent activity
Outline: as §3

Blackgrass = experiment: Postemergent activity
Outline: as §3

Cheatgrass = experiment: Postemergent activity
Outline: as §3

Wheat = experiment: Postemergent activity; details: Triticum aestivum, post-emergence, 336 h, read-out: % Control
Outline: (§4)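 Pots of plants about 10 cm tall sprayed to run-off at 125, 62.5, 31.25, 15.6, 7.8 and 3.9 ppm. Spray: active in acetone mixed with an equal volume of water containing 0.1% TWEEN 200. Growth scored two weeks later on a 0–100 scale (0 no effect, 100 complete kill).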

Wild Oats = experiment: Postemergent activity; details: Avena fatua, post-emergence, 336 h
Outline: as §4

COC(=O)C(C)Oc1ccc(Oc2ccc(Br)cc2F)cc1 (racemic) [Example 4-Bromo-, 2-[4-(4-bromo-2-fluorophenoxy)phenoxy]propionic acid methyl ester]
Percent Control (Barley [1]; 0.0011 kgs/hectare): 0% | Percent Control (Barley [1]; 0.0023 kgs/hectare): 0% | Percent Control (Barley [1]; 0.0045 kgs/hectare): 0% | Percent Control (Barley [1]; 0.009 kgs/hectare): 0% | Percent Control (Barley [1]; 0.018 kgs/hectare): 0% | Percent Control (Barley [1]; 0.035 kgs/hectare): 0% | Percent Control (Barley [1]; 0.07 kgs/hectare): 0% | Percent Control (Barley [1]; 0.14 kgs/hectare): 10% | Percent Control (Barley [1]; 0.28 kgs/hectare): 20% | Percent Control (Barley [1]; 0.56 kgs/hectare): 50% | Percent Control (Green Foxtail [2]; 0.0011 kgs/hectare): 0% | Percent Control (Green Foxtail [2]; 0.0023 kgs/hectare): 20% | Percent Control (Green Foxtail [2]; 0.0045 kgs/hectare): 90% | Percent Control (Green Foxtail [2]; 0.009 kgs/hectare): 90% | Percent Control (Green Foxtail [2]; 0.035 kgs/hectare): 100% | Percent Control (Green Foxtail [2]; 0.07 kgs/hectare): 100% | Percent Control (Green Foxtail [2]; 0.14 kgs/hectare): 100% | Percent Control (Green Foxtail [2]; 0.28 kgs/hectare): 100% | Percent Control (Green Foxtail [2]; 0.56 kgs/hectare): 100% | Percent Control (Tall Fescue; 0.0011 kgs/hectare): 0% | Percent Control (Tall Fescue; 0.0023 kgs/hectare): 10% | Percent Control (Tall Fescue; 0.0045 kgs/hectare): 20% | Percent Control (Tall Fescue; 0.009 kgs/hectare): 20% | Percent Control (Tall Fescue; 0.035 kgs/hectare): 60% | Percent Control (Tall Fescue; 0.14 kgs/hectare): 90% | Percent Control (Tall Fescue; 0.28 kgs/hectare): 95% | Percent Control (Tall Fescue; 0.56 kgs/hectare): 95% | Percent Control (Orchardgrass; 0.0011 kgs/hectare): 0% | Percent Control (Orchardgrass; 0.0023 kgs/hectare): 0% | Percent Control (Orchardgrass; 0.0045 kgs/hectare): 0% | Percent Control (Orchardgrass; 0.009 kgs/hectare): 0% | Percent Control (Orchardgrass; 0.035 kgs/hectare): 0% | Percent Control (Orchardgrass; 0.07 kgs/hectare): 80% | Percent Control (Orchardgrass; 0.14 kgs/hectare): 90% | Percent Control (Orchardgrass; 0.28 kgs/hectare): 90% | Percent Control (Orchardgrass; 0.56 kgs/hectare): 90% | % Control (Barley [3]; 3.9 ppm): 0% | % Control (Barley [3]; 7.8 ppm): 0% | % Control (Barley [3]; 15.6 ppm): 0% | % Control (Barley [3]; 31.25 ppm): 0% | % Control (Barley [3]; 62.5 ppm): 10% | % Control (Barley [3]; 125 ppm): 10% | % Control (Barley [3]; 250 ppm): 10% | % Control (Barley [3]; 500 ppm): 30% | % Control (Green Foxtail [4]; 0.2 ppm): 20% | % Control (Green Foxtail [4]; 0.4 ppm): 90% | % Control (Green Foxtail [4]; 0.8 ppm): 90% | % Control (Green Foxtail [4]; 1.5 ppm): 100% | % Control (Green Foxtail [4]; 3.1 ppm): 100% | % Control (Green Foxtail [4]; 6.25 ppm): 100% | % Control (Green Foxtail [4]; 12.5 ppm): 100% | % Control (Green Foxtail [4]; 25 ppm): 100% | % Control (Yellow Foxtail; 0.2 ppm): 0% | % Control (Yellow Foxtail; 0.4 ppm): 0% | % Control (Yellow Foxtail; 0.8 ppm): 20% | % Control (Yellow Foxtail; 1.5 ppm): 50% | % Control (Yellow Foxtail; 3.1 ppm): 80% | % Control (Yellow Foxtail; 6.25 ppm): 100% | % Control (Yellow Foxtail; 12.5 ppm): 100% | % Control (Yellow Foxtail; 25 ppm): 100% | % Control (Blackgrass; 0.2 ppm): 0% | % Control (Blackgrass; 0.4 ppm): 10% | % Control (Blackgrass; 0.8 ppm): 30% | % Control (Blackgrass; 1.5 ppm): 50% | % Control (Blackgrass; 3.1 ppm): 70% | % Control (Blackgrass; 6.25 ppm): 99% | % Control (Blackgrass; 12.5 ppm): 100% | % Control (Blackgrass; 25 ppm): 100% | % Control (Cheatgrass; 0.2 ppm): 0% | % Control (Cheatgrass; 0.4 ppm): 0% | % Control (Cheatgrass; 0.8 ppm): 0% | % Control (Cheatgrass; 1.5 ppm): 0% | % Control (Cheatgrass; 3.1 ppm): 0% | % Control (Cheatgrass; 6.25 ppm): 0% | % Control (Cheatgrass; 12.5 ppm): 0% | % Control (Cheatgrass; 25 ppm): 0% | plant injury at 3.9 ppm (Wheat; 3.9 ppm): 0% | plant injury at 7.8 ppm (Wheat; 7.8 ppm): 0% | plant injury at 15.6 ppm (Wheat; 15.6 ppm): 0% | plant injury at 31.25 ppm (Wheat; 31.25 ppm): 0% | plant injury at 62.5 ppm (Wheat; 62.5 ppm): 0% | plant injury at 125 ppm (Wheat; 125 ppm): 0% | plant injury at 250 ppm (Wheat; 250 ppm): 0% | plant injury at 500 ppm (Wheat; 500 ppm): 0% | pest or weed control at 3.9 ppm (Wild Oats; 3.9 ppm): 70% | pest or weed control at 7.8 ppm (Wild Oats; 7.8 ppm, read-out: % Control): 80% | pest or weed control at 15.6 ppm (Wild Oats; 15.6 ppm, read-out: % Control): 100% | pest or weed control at 31.25 ppm (Wild Oats; 31.25 ppm, read-out: % Control): 100% | pest or weed control at 62.5 ppm (Wild Oats; 62.5 ppm, read-out: % Control): 100% | pest or weed control at 125 ppm (Wild Oats; 125 ppm, read-out: % Control): 95% | pest or weed control at 250 ppm (Wild Oats; 250 ppm, read-out: % Control): 100% | pest or weed control at 500 ppm (Wild Oats; 500 ppm, read-out: % Control): 100%
